Reference: patent publication US5091386A, “7-substituted derivatives of 3,5-dihydroxyhept-6-ynoic acids and corresponding lactones and their use as hypercholeserolemics” (Hoechst Aktiengesellschaft, priority 1988, dated 1992)
pIC50: −log10 of the molar value.

Columns and labels:
[1] = target: T1, HMG-CoA reductase (Rattus norvegicus, UniProt P51639); assay: HMG-CoA reductase activity in enzyme preparations (solubilized enzyme from liver microsomes of rats); type: biochemical; conditions: (SmR) 14C-HMG-CoA substrate
T1 construct: solubilized enzyme preparations from liver microsomes of rats; from tissue; host or cells: rat liver microsomes (solubilized), rats induced with cholestyramine
T1 sequence (P51639 1-887): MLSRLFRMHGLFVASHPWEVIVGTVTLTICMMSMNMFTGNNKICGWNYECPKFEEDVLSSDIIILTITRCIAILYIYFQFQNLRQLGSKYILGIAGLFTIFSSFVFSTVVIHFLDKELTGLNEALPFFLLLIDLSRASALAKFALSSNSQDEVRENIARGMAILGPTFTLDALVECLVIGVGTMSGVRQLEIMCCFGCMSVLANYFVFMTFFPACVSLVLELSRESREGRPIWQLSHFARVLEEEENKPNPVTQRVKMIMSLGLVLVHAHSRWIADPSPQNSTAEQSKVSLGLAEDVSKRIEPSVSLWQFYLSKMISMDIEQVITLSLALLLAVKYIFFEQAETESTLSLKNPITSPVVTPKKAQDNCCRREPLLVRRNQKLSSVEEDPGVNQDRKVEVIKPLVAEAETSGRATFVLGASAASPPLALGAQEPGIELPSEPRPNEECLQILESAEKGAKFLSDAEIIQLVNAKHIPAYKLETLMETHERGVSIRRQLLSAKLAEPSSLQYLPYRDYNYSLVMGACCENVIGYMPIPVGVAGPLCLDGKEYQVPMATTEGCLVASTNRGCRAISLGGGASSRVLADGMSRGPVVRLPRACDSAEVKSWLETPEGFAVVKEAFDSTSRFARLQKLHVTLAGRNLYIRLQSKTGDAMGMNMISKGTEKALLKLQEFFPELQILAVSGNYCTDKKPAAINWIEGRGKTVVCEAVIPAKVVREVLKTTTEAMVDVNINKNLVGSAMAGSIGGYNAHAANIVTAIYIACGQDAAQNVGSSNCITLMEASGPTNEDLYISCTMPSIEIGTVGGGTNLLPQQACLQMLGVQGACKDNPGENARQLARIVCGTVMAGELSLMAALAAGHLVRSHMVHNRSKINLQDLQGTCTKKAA
Procedure: The HMG-CoA reductase activity was measured on solubilized enzyme preparations from liver microsomes of rats which had been induced with cholestyramine (®Cuemid) after changing the day/night rhythm. (Sm R) ^14 C-HMG-CoA was used as substrate, and the concentration of NADPH was maintained during the incubation by a regenerating system. ^14 C-mevalonate was separated from the substrate and other products (for example ^14 C-HMG) by column elution, with the elution profile of each individual sample being determined. ^3 H-Mevalonate was not always included because the object was to determine relative data on the inhibitory effect. In each test series the enzyme-free control, the enzyme-containing normal mixture (=100%) and those with added product, final concentration 10^-5 to 10^-9 M, were treated together. Each individual value was formed as the mean of 3 parallel samples. The significance of the differences between means for product-free and product-containing samples was assessed by the t test.
Using the method described above, for example, the following values for the inhibition of HMG-CoA reductase were found for the compounds according to the invention [IC50 /mol/liter denotes the molar concentration of the compound per liter required for a 50% inhibition]. […]

[2] = system: cholesterol biosynthesis in HEP-G2 cells; assay: Inhibition of cholesterol biosynthesis in HEP-G2 cell cultures; type: cell-based; conditions: for pIC50: Homo sapiens, HepG2, 14C-cholesterol formed from 14C-precursor; for relative activity (IC50 ref./IC50): vs analogous hept-6E-enoic acid derivative
Procedure: Monolayers of HEP-G2 cells in lipoprotein-free nutrient medium were preincubated with the appropriate concentrations of the test substances for a defined time (for example 1 hour) and, after addition of the labeled precursor, for example sodium ^14 C-acetate, the incubation was continued (for example for 3 hours). After addition of an internal standard (^3 H-cholesterol) a portion of the cells was subjected to alkaline hydrolysis. The lipids from the hydrolyzed cells were extracted with chloroform/methanol. This lipid mixture was, after addition of carrier cholesterol, subjected to preparative thin-layer chromatography, the cholesterol band was visualized with iodine vapor and then isolated, and the amount of ^14 C-cholesterol formed from the ^14 C-precursor was determined by scintigraphy. Cell protein was determined in an aliquot of the cells so that it is possible to calculate the amount of ^14 C-cholesterol formed in unit time per mg of cell protein. The inhibitory effect of the particular test product on cholesterol biosynthesis by HEP-G2 cell cultures emerged by comparison of this figure with the amount of ^14 C-cholesterol formed per mg of cell protein and unit time in a culture treated in the same way but free of test substance.
Testing of substances for inhibition of cholesterol biosynthesis in confluent cell cultures (monolayers) of HEP-G2 cells [drawing 17]
Using the method described above, for example the following figures for the inhibition of cholesterol biosynthesis (in HEP-G2 cells) were found for the compounds according to the invention (the IC50 /mol is that concentration of the compound which brings about 50% inhibition of cholesterol biosynthesis). IC50 values were determined for the compounds according to the invention as well as for identically substituted 3,5-dihydroxyhept6E-enoic acid derivatives (IC50 ref.). The quotient IC50 ref./IC50 yielded the relative activity of the compounds according to the invention. […] This corresponds to a relative activity of 1.6 based on the analogous hept-6E-enoic acid derivative.

With CC(C)c1nc(-c2ccccc2)cc(-c2ccc(F)cc2)c1C#C[C@@H](O)C[C@@H](O)CC(=O)O (relative stereo) [Example 7a, sodium 3RS, 5SR-dihydroxy-7-(4-(4-fluorophenyl)-2-(1-methylethyl)-6-phenylpyridin-3-yl)hept-6-ynoate] as the compound, how does the pIC50 [1] read?
The pIC50 was 8.52.

With CC(C)C(C#C[C@@H](O)C[C@@H](O)CC(=O)O)=C(c1ccc(F)cc1)c1ccc(F)cc1 (relative stereo) [Example 7l] as the compound, how does the pIC50 [1] read?
Its pIC50 is 8.24.

How did the pIC50 [2] turn out when CC(C)c1nc(-c2ccccc2)cc(-c2ccc(F)cc2)c1C#C[C@@H]1C[C@@H](O)CC(=O)O1 (relative stereo) [Example 8a, 6RS-2-(4-(4-Fluorophenyl)-2-(1-methylethyl)-6-phenylpyridin-3-yl)ethynyl-4SR-hydroxy-3,4,5,6-tetrahydro-2H-pyran-2-one] was run?
Its pIC50 is 8.05.

And the “relative activity (IC50 ref./IC50)” value [2]?
Its value is 2.67.

Which results are given for CC(C)c1nc(-c2ccc(F)cc2)nc(-c2ccc(F)cc2)c1C#C[C@@H]1C[C@@H](O)CC(=O)O1 (relative stereo) [Example 8e]?
pIC50 [2]: 7.96; relative activity (IC50 ref./IC50) [2]: 1.6
